Tests used:
[1] = Stability test in presence of protein: calcium salt added to milk, heat treatment; format: physicochemical; details: 600 ppm calcium added
[2] = Stability test in presence of protein: calcium salt added to soy milk, heat treatment; format: physicochemical; details: 600 ppm calcium added

Compound	protein stability (coagulation) of the fortified milk after heat treatment [1]	protein stability (coagulation / viscosity) of the fortified soy milk after heat treatment [2]
CC(O)C(=O)O.O=C(O)[C@H](O)[C@@H](O)[C@H](O)[C@H](O)CO.O=C([O-])CC(O)(CC(=O)[O-])C(=O)O.[Ca+2] [calcium lactate gluconate citrate]	coaglulated a little to become a quark like substance	somewhat increased viscosity after heat treatment, but was still pourable
CC(O)C(=O)[O-].O=C([O-])[C@H](O)[C@@H](O)[C@H](O)[C@H](O)CO.[Ca+2] [calcium lactate gluconate]	completely coagulated to a firm substance	completely coagulated to a firm substance
